Experimental data: patent US20250163038A1, “CBL-B MODULATORS AND USES THEREOF” (Nimbus Clio, Inc., priority 2021, published 2025)
Read-outs that look alike come from different tables or passages of the source.

Experiments:
[1] = test system: Jurkat (clone E6-1) cells with NFAT luciferase reporter; experiment: Jurkat reporter assay (NFAT Luciferase); type: cell-based; details: Homo sapiens
[2] = biological target: Recombinant human Cbl-b (aa 36-427) (Homo sapiens, UniProt Q13191); experiment: Cbl-b Biochemical Assay (TR-FRET); details: read-out: TR-FRET hCbl-b IC50
Recombinant human Cbl-b (aa 36-427), sequence (Q13191 36-427): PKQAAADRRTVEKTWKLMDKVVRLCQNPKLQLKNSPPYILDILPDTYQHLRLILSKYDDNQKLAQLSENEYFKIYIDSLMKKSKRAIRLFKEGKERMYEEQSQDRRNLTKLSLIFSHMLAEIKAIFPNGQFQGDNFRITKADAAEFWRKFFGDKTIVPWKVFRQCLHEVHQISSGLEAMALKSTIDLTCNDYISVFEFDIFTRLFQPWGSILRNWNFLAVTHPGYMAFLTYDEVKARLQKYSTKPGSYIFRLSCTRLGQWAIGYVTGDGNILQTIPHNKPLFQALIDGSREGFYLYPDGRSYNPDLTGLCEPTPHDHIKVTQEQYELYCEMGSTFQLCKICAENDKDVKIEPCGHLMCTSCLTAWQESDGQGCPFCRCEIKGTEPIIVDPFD

[3] = biological target: T1, Recombinant human c-Cbl (aa 47-435) (Homo sapiens, UniProt P22681); experiment: c-Cbl Biochemical Assay (TR-FRET); details: hc-Cbl Biochemical Assay (TR-FRET); read-out: TR-FRET hcCbl IC50
T1 sequence (P22681 47-435): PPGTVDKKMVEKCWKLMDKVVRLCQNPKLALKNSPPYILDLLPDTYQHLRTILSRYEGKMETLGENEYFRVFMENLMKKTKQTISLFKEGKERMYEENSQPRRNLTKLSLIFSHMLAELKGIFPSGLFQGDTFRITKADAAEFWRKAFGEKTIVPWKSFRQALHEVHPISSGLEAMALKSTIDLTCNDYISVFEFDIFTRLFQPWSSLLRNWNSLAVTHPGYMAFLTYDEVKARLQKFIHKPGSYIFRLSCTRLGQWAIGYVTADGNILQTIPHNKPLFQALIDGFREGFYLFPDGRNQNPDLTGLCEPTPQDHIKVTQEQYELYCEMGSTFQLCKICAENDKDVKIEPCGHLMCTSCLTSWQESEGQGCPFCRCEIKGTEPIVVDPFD

[4] = Jurkat NFAT luciferase reporter cells, anti-CD3 stimulation, 6 hr, read-out: Jurkat NFAT EC50

| SMILES | EC50 [1, 4] [µM] | IC50 [2] [nM] | IC50 [3] [nM] | EC50 ([1]; Jurkat, 6 h, read-out: Jurkat NFAT EC50 (μM)) [µM] |
| --- | --- | --- | --- | --- |
| CO[C@H](CO)c1cc(C(F)(F)F)c2oc(-c3cccc(-c4ccc(F)cc4-c4nncn4C)c3)nc2c1 (single isomer, unassigned) [EG-2] | 1 to 10 | < 200 | 200 to 1000 |  |
| CO[C@@H](CO)c1cc(C(F)(F)F)c2oc(-c3cccc(-c4ccc(F)cc4-c4nncn4C)c3)nc2c1 (single isomer, unassigned) [EG-3] | 1 to 10 | < 200 | 200 to 1000 |  |
| CC(NCC1(O)CCC1)c1cc(F)c2oc(-c3cc(-c4ccc(F)cc4-c4nncn4C)cc(C4CC4)n3)nc2c1 (stereo in doubt) [AFQ-6, 1-({[(1S)-1-(2-{6-Cyclopropyl-4-[4-fluoro-2-(4-methyl-1,2,4-triazol-3-yl)phenyl]pyridin-2-yl}-7-fluoro-1,3-benzoxazol-5-yl)ethyl]amino}methyl)cyclobutan-1-ol] | < 0.2 | < 200 | < 200 |  |
| CC(NCC1(O)CCC1)c1cc(F)c2oc(-c3cc(-c4ccc(F)cc4-c4nncn4C)cc(C4CC4)n3)nc2c1 (stereo in doubt) [AFR-1, 1-({[(1R)-1-(2-{6-Cyclopropyl-4-[4-fluoro-2-(4-methyl-1,2,4-triazol-3-yl)phenyl]pyridin-2-yl}-7-fluoro-1,3-benzoxazol-5-yl)ethyl]amino}methyl)cyclobutan-1-ol] | < 0.2 | < 200 | < 200 |  |
| CO[C@H]1CCCC1NCc1cc(C(F)(F)F)c2oc(-c3cccc(-c4ccc(F)cc4-c4nncn4C)c3)nc2c1 (stereo in doubt) [CV-2, (1S,2S)—N-((2-(4′-Fluoro-2′-(4-methyl-4H-1,2,4-triazol-3-yl)-[1,1′-biphenyl]-3-yl)-7-(trifluoromethyl)benzo[d]oxazol-5-yl)methyl)-2-methoxycyclopentan-1-amine] | 0.2 to 1 | < 200 | < 200 |  |
| COCCNCc1cc(C(F)(F)F)c2oc(-c3cccc(-c4ccc(F)cc4-c4nncn4C)c3)nc2c1 [AA-2, N-((2-(4′-Fluoro-2′-(4-methyl-4H-1,2,4-triazol-3-yl)-[1,1′-biphenyl]-3-yl)-7-(trifluoromethyl)benzo[d]oxazol-5-yl)methyl)-2-methoxyethan-1-amine] | 0.2 to 1 | < 200 | 1000 to 10000 |  |
| CC(c1cc(C(F)(F)F)c2oc(-c3cccc(C4(Cc5nncn5C)COC4)c3)nc2c1)N1CCC2(CC2)C1 (stereo not drawn) [AAB-9, 5-(1-{5-Azaspiro[2.4]heptan-5-yl}ethyl)-2-(3-{3-[(4-methyl-1,2,4-triazol-3-yl)methyl]oxetan-3-yl}phenyl)-7-(trifluoromethyl)-1,3-benzoxazole] | 0.2 to 1 | < 200 | 1000 to 10000 |  |
| C[C@H](c1cc(C(F)(F)F)c2oc(-c3cccc(C4(Cc5nncn5C)COC4)c3)nc2c1)N1CCC2(CC2)C1 [AAD-1, 5-[(1R)-1-{5-azaspiro[2.4]heptan-5-yl}ethyl]-2-(3-{3-[(4-methyl-1,2,4-triazol-3-yl)methyl]oxetan-3-yl}phenyl)-7-(trifluoromethyl)-1,3-benzoxazole] | 0.2 to 1 | < 200 | 1000 to 10000 |  |
| C[C@@H](c1cc(C(F)(F)F)c2oc(-c3cccc(C4(Cc5nncn5C)COC4)c3)nc2c1)N1CCC2(CC2)C1 [AAE-1, 5-[(1S)-1-{5-azaspiro[2.4]heptan-5-yl}ethyl]-2-(3-{3-[(4-methyl-1,2,4-triazol-3-yl)methyl]oxetan-3-yl}phenyl)-7-(trifluoromethyl)-1,3-benzoxazole] | 0.2 to 1 | < 200 | < 200 |  |
| CCNc1cc(-c2ccccc2-c2nncn2C)cc(-c2nc3cc(CN4CCC5(CC5)C4)cc(C(F)(F)F)c3[nH]2)n1 [AAG-4, 6-(6-{5-Azaspiro[2.4]heptan-5-ylmethyl}-4-(trifluoromethyl)-3H-1,3-benzodiazol-2-yl)-N-ethyl-4-[2-(4-methyl-1,2,4-triazol-3-yl)phenyl]pyridin-2-amine] | 1 to 10 | 200 to 1000 | 10000 to 50000 |  |
| C[C@H]1CCCN(Cc2cc(C(F)(F)F)c3[nH]c(-c4cccc(-c5ccccc5-c5nncn5C)c4)nc3c2)C1 [AAI-5, 2-[2′-(4-Methyl-1,2,4-triazol-3-yl)-[1,1′-biphenyl]-3-yl]-6-{[(3S)-3-methylpiperidin-1-yl]methyl}-4-(trifluoromethyl)-3H-1,3-benzodiazole] | 1 to 10 | 200 to 1000 | 10000 to 50000 |  |
| Cn1cnnc1-c1cc(F)ccc1-c1cccc(-c2nc3cc(CN4CCC5(CC5)C4)cc(C(F)(F)F)c3o2)c1 [AAL-5, 5-((5-Azaspiro[2.4]heptan-5-yl)methyl)-2-(4′-fluoro-2′-(4-methyl-4H-1,2,4-triazol-3-yl)-[1,1′-biphenyl]-3-yl)-7-(trifluoromethyl) benzo[d]oxazole] | 1 to 10 | < 200 | 1000 to 10000 |  |
| C[C@H]1CCCN(Cc2cc(C(F)(F)F)c3oc(-c4cc(-c5ccccc5-c5nncn5C)cc(C5CC5)n4)nc3c2)C1 [AAP-7, 2-{6-Cyclopropyl-4-[2-(4-methyl-1,2,4-triazol-3-yl)phenyl]pyridin-2-yl}-5-{[(3S)-3-methylpiperidin-1-yl]methyl}-7-(trifluoromethyl)-1,3-benzoxazole] |  | < 200 | 1000 to 10000 | 0.2 to 1 |
| C[C@@H]1CCCN(Cc2cc(C(F)(F)F)c3oc(-c4cc(-c5ccccc5-c5nncn5C)cc(C5CC5)n4)nc3c2)C1 [AAQ-2, 2-{6-Cyclopropyl-4-[2-(4-methyl-1,2,4-triazol-3-yl)phenyl]pyridin-2-yl}-5-{[(3R)-3-methylpiperidin-1-yl]methyl}-7-(trifluoromethyl)-1,3-benzoxazole] | 1 to 10 | 200 to 1000 | 1000 to 10000 |  |
| Cn1cnnc1-c1ccccc1-c1cc(-c2nc3cc(CN4CCC5(CC5)C4)cc(C(F)(F)F)c3o2)nc(C2CC2)c1 [AAR-2, 5-{5-Azaspiro[2.4]-heptan-5-ylmethyl}-2-{6-cyclopropyl-4-[2-(4-methyl-1,2,4-triazol-3-yl)-phenyl]-pyridin-2-yl}-7-(trifluoromethyl)-1,3-benzoxazole] | 1 to 10 | < 200 | 1000 to 10000 |  |
| Cn1cnnc1-c1ccccc1-c1cc(-c2nc3cc(CN4CCC5(CC5)C4)cc(C(F)(F)F)c3[nH]2)nc(C2CC2)c1 [AAS-2, 5-((5-Azaspiro[2.4]heptan-5-yl)methyl)-2-(6-cyclopropyl-4-(2-(4-methyl-4H-1,2,4-triazol-3-yl)phenyl)pyridin-2-yl)-7-(trifluoromethyl)-1H-benzo[d]imidazole] | 1 to 10 | < 200 | 1000 to 10000 |  |
| Cn1cnnc1-c1cc(C#N)ccc1-c1cccc(-c2nc3cc(CN[C@@H]4CCC[C@@H]4O)cc(C(F)(F)F)c3[nH]2)c1 [AAW-5, 3′-(5-((((1R,2S)-2-Hydroxycyclopentyl)amino)methyl)-7-(trifluoromethyl)-1H-benzo[d]imidazol-2-yl)-2-(4-methyl-4H-1,2,4-triazol-3-yl)-[1,1′-biphenyl]-4-carbonitrile] | 0.2 to 1 | < 200 | 1000 to 10000 |  |
| C[C@H]1CCCN(Cc2cc(C(F)(F)F)c3[nH]c(-c4cccc([C@]5(c6nncn6C)C[C@@H](C)C5)c4)nc3c2)C1 [AAX-12, 6-{[(3S)-3-Methylpiperidin-1-yl]methyl}-2-{3-[(1r,3s)-3-methyl-1-(4-methyl-1,2,4-triazol-3-yl)cyclobutyl]phenyl}-4-(trifluoromethyl)-3H-1,3-benzodiazole] | 1 to 10 | < 200 | 10000 to 50000 |  |
| C[C@H]1CCCN(Cc2cc(C(F)(F)F)c3oc(-c4cccc([C@]5(c6nncn6C)C[C@@H](C)C5)c4)nc3c2)C1 [AAY-2, 5-{[(3S)-3-Methylpiperidin-1-yl]methyl}-2-{3-[(1r,3s)-3-methyl-1-(4-methyl-1,2,4-triazol-3-yl)cyclobutyl]phenyl}-7-(trifluoromethyl)-1,3-benzoxazole] | 1 to 10 | < 200 | 1000 to 10000 |  |
| C[C@H]1CCCN(Cc2cc(C(F)(F)F)c3[nH]c(-c4cc(-c5ccc(F)cc5-c5nncn5C)cc(C5CC5)n4)nc3c2)C1 [AAZ-10, (S)-2-(6-Cyclopropyl-4-(4-fluoro-2-(4-methyl-4H-1,2,4-triazol-3-yl)phenyl)pyridin-2-yl)-5-((3-methylpiperidin-1-yl)methyl)-7-(trifluoromethyl)-1H-benzo[d]imidazole] | 0.2 to 1 | < 200 | 1000 to 10000 |  |
| CO[C@H]1CCN(Cc2cc(C(F)(F)F)c3oc(-c4cccc(-c5ccc(F)cc5-c5nncn5C)c4)nc3c2)C1 [AB-2, (S)-2-(4′-Fluoro-2′-(4-methyl-4H-1,2,4-triazol-3-yl)-[1,1′-biphenyl]-3-yl)-5-((3-methoxypyrrolidin-1-yl)methyl)-7-(trifluoromethyl)benzo[d]oxazole] | 1 to 10 | < 200 | 1000 to 10000 |  |
| Cn1cnnc1-c1cc(F)ccc1-c1cc(C(=O)Nc2cc(CN3CCC4(CC4)C3)cc(C(F)(F)F)c2N)nc(C2CC2)c1 [ABA-1, N-(5-((5-Azaspiro[2.4]heptan-5-yl)methyl)-2-amino-3-(trifluoromethyl)phenyl)-6-cyclopropyl-4-(4-fluoro-2-(4-methyl-4H-1,2,4-triazol-3-yl)phenyl)picolinamide] | 0.2 to 1 | < 200 | 1000 to 10000 |  |
